Where “and” joins values, the source holds several entries; their conditions need not be identical. Equal entries are not always repeated. Toxic doses and inconclusive results are not listed.

For this experiment, the system named is P388 leukemia ip, CD2F1 mice, survival T/C. As to the kind of experiment: NCI In Vivo Anticancer Drug Screen. Data for tumor model P388 Leukemia (intraperitoneal) in CD2F1 (CDF1) mice. The following applies: endpoint: median survival time, higher = longer survival. In outline: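 Mice carrying the transplanted tumor received test compound or vehicle. Survival was recorded in each group, and the value is the treated-group measurement divided by that of the vehicle-treated control group.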

The mark [1] stands for this setting: dose: 12.5 mg/kg/injection, schedule: Q01DX009 (ip), vehicle: Klucel (hydroxypropylcellulose) (HPC).
[2] abbreviates: dose: 25.0 mg/kg/injection, schedule: Q01DX009 (ip), vehicle: Klucel (hydroxypropylcellulose) (HPC).
[3] abbreviates: dose: 50.0 mg/kg/injection, schedule: Q01DX009 (ip), vehicle: Klucel (hydroxypropylcellulose) (HPC).
The mark [4] stands for this setting: dose: 100.0 mg/kg/injection, schedule: Q01DX009 (ip), vehicle: Klucel (hydroxypropylcellulose) (HPC).
[5] abbreviates: dose: 100.0 mg/kg/injection, schedule: Q04DX002 (ip), vehicle: saline with Tween-80.
[6] abbreviates: dose: 200.0 mg/kg/injection, schedule: Q04DX002 (ip), vehicle: saline with Tween-80.
Where [7] appears, read: dose: 12.5 mg/kg/injection, schedule: Q01DX009 (ip), vehicle: saline.
The mark [8] stands for this setting: dose: 25.0 mg/kg/injection, schedule: Q01DX009 (ip), vehicle: saline.
Setting [9] is: dose: 50.0 mg/kg/injection, schedule: Q01DX009 (ip), vehicle: saline.
[10] abbreviates: dose: 200.0 mg/kg/injection, schedule: Q01DX009 (ip), vehicle: saline.
The mark [11] stands for this setting: dose: 60.0 mg/kg/injection, schedule: Q01DX005 (ip), vehicle: saline.
The mark [12] stands for this setting: dose: 120.0 mg/kg/injection, schedule: Q01DX005 (ip), vehicle: saline.
[13] abbreviates: dose: 50.0 mg/kg/injection, schedule: Q01DX005 (ip), vehicle: Klucel (hydroxypropylcellulose) (HPC).
The mark [14] stands for this setting: dose: 100.0 mg/kg/injection, schedule: Q01DX005 (ip), vehicle: Klucel (hydroxypropylcellulose) (HPC).
[15] abbreviates: dose: 200.0 mg/kg/injection, schedule: Q01DX005 (ip), vehicle: Klucel (hydroxypropylcellulose) (HPC).

`C=CCCCC/C=C/C=C/C#CC#C/C=C/COC(C)=O`: the T/C is, setting by setting: under setting [1], 100 % of control; under setting [2], 106 % of control; under setting [3], 106 % of control; under setting [4], 106 % of control.
`CCOC(=O)C(=O)C(C(=O)c1ccccn1)c1nc2n(c1O)C(=N)N=N2` (stereo not given): the T/C was 102 % of control (dose: 50.0 mg/kg/injection, schedule: Q01DX005 (ip), vehicle: saline with Tween-80); 94 % of control (dose: 100.0 mg/kg/injection, schedule: Q01DX005 (ip), vehicle: saline with Tween-80); 87 % of control (dose: 200.0 mg/kg/injection, schedule: Q01DX005 (ip), vehicle: saline with Tween-80).
Consider `CC1C(C)(C)P(C)(=O)C1(C)C` (stereo not given), for which the T/C is 89 % of control under setting [5] and 97 % of control under setting [6].
In the case of `CN(C)CSCN(C)C`, the T/C was 103 % of control and 93 % of control (dose: 25.0 mg/kg/injection, schedule: Q01DX009 (ip), vehicle: saline with Tween-80); 100 % of control and 113 % of control (dose: 50.0 mg/kg/injection, schedule: Q01DX009 (ip), vehicle: saline with Tween-80); 102 % of control and 123 % of control (dose: 100.0 mg/kg/injection, schedule: Q01DX009 (ip), vehicle: saline with Tween-80).
In the case of `CCN(CC)CCCCCCCNc1cc(OC)cc2c(C)ccnc12`, the T/C is, setting by setting: (dose: 6.25 mg/kg/injection, schedule: Q01DX009 (ip), vehicle: saline) 90 % of control; under setting [7], 93 % of control; under setting [8], 99 % of control.
On to `CC12CCC3c4ccc(O)cc4CCC3C1C/C(=C\C(=O)O)C2=O` (stereo not given), for which the T/C was 104 % of control (dose: 3.13 mg/kg/injection, schedule: Q01DX009 (ip), vehicle: Klucel (hydroxypropylcellulose) (HPC)); 111 % of control (dose: 6.25 mg/kg/injection, schedule: Q01DX009 (ip), vehicle: Klucel (hydroxypropylcellulose) (HPC)); 108 % of control under setting [1]; 111 % of control under setting [2].
Consider `CCC1([N+](=O)[O-])CN(C)CC2CCCCN2C1` (stereo not given), for which the T/C (dose: 25.0 mg/kg/injection, schedule: Q04DX002 (ip), vehicle: water) is 95 % of control; the T/C (dose: 50.0 mg/kg/injection, schedule: Q04DX002 (ip), vehicle: water) is 101 % of control; the T/C (dose: 100.0 mg/kg/injection, schedule: Q04DX002 (ip), vehicle: saline) was 100 % of control; the T/C (dose: 100.0 mg/kg/injection, schedule: Q04DX002 (ip), vehicle: water) was 103 % of control.
Consider `C1CNC2NCCNC2N1` (stereo not given), for which the T/C under setting [8] is 118 % of control.
As to `CCC[CH2][Sn]1([CH2]CCC)[O]C(=O)C[S]1`, the T/C is, setting by setting: (dose: 0.75 mg/kg/injection, schedule: Q01DX009 (ip), vehicle: saline) 100 % of control; (dose: 1.5 mg/kg/injection, schedule: Q01DX009 (ip), vehicle: saline) 108 % of control; (dose: 2.0 mg/kg/injection, schedule: Q01DX009 (ip), vehicle: saline with Tween-80) 115 % of control; (dose: 2.0 mg/kg/injection, schedule: Q04DX003 (ip), vehicle: saline with Tween-80) 118 % of control; (dose: 4.5 mg/kg/injection, schedule: Q04DX003 (ip), vehicle: saline with Tween-80) 150 % of control.
As for `O=C(C=C(C(F)(F)F)C(F)(F)F)c1ccc(C(=O)C=C(C(F)(F)F)C(F)(F)F)cc1`, the T/C (dose: 50.0 mg/kg/injection, schedule: Q04DX003 (ip), vehicle: saline with Tween-80) was 118 % of control and the T/C (dose: 100.0 mg/kg/injection, schedule: Q04DX003 (ip), vehicle: saline with Tween-80) is 100 % of control.
Turning to `CCCCCCCCCCCCCCCCS(=O)(=O)N/N=c1\cc(-c2ccccc2Cl)c2ccccc2n1C`, the T/C by setting is: under setting [7], 92 % of control; under setting [8], 90 % of control; under setting [9], 89 % of control and 90 % of control; under setting [10], 89 % of control.
Turning to `C#CCCCOCOCCOC`, the T/C is, setting by setting: under setting [11], 101 % of control; under setting [12], 101 % of control.
Take `Nc1cc(S(=O)(=O)c2ccc(O)c(N)c2)ccc1O`: the T/C is, setting by setting: (dose: 100.0 mg/kg/injection, schedule: Q01DX009 (ip), vehicle: saline) 111 % of control and 92 % of control; under setting [10], 102 % of control and 104 % of control; (dose: 400.0 mg/kg/injection, schedule: Q01DX009 (ip), vehicle: saline) 100 % of control and 95 % of control.
Turning to `CCc1c(-c2ccc(Cl)cc2)nc(N)nc1-c1nc(N)nc(-c2ccc(Cl)cc2)c1CC`, the T/C runs as follows: under setting [11], 100 % of control; under setting [12], 100 % of control.
In the case of `COP(=O)(OC)C(O)C1CCCCC1` (stereo not given), the T/C is 100 % of control under setting [7]; 116 % of control under setting [8]; 100 % of control and 106 % of control under setting [9]; 99 % of control under setting [10].
Regarding `COc1cc(C)c2c(OC)c(C)c(=O)oc2c1OC`, the T/C is 105 % of control (dose: 6.25 mg/kg/injection, schedule: Q01DX005 (ip), vehicle: Klucel (hydroxypropylcellulose) (HPC)); 100 % of control (dose: 12.5 mg/kg/injection, schedule: Q01DX005 (ip), vehicle: Klucel (hydroxypropylcellulose) (HPC)); 97 % of control (dose: 25.0 mg/kg/injection, schedule: Q01DX005 (ip), vehicle: Klucel (hydroxypropylcellulose) (HPC)); 104 % of control under setting [13].
For the compound `CC(C)CCCC(C)C1CCC2C3CCC4C5Oc6ccccc6N=C5CCC4(C)C3CCC12C` (stereo not given), the T/C is, setting by setting: (dose: 60.0 mg/kg/injection, schedule: Q01DX005 (ip), vehicle: Klucel (hydroxypropylcellulose) (HPC)) 92 % of control; (dose: 120.0 mg/kg/injection, schedule: Q01DX005 (ip), vehicle: Klucel (hydroxypropylcellulose) (HPC)) 97 % of control; (dose: 240.0 mg/kg/injection, schedule: Q01DX005 (ip), vehicle: Klucel (hydroxypropylcellulose) (HPC)) 93 % of control.
In the case of `O=NNc1cncc(Sc2ccccc2)n1`, the T/C by setting is: (dose: 3.12 mg/kg/injection, schedule: Q01DX009 (ip), vehicle: water) 97 % of control; (dose: 6.25 mg/kg/injection, schedule: Q01DX009 (ip), vehicle: water) 94 % of control; (dose: 12.5 mg/kg/injection, schedule: Q01DX009 (ip), vehicle: water) 101 % of control; (dose: 25.0 mg/kg/injection, schedule: Q01DX008 (ip), vehicle: water) 116 % of control; (dose: 25.0 mg/kg/injection, schedule: Q01DX009 (ip), vehicle: water) 107 % of control; (dose: 50.0 mg/kg/injection, schedule: Q01DX008 (ip), vehicle: water) 120 % of control. Also, the T/C (dose: 50.0 mg/kg/injection, schedule: Q01DX009 (ip), vehicle: water) was 92 % of control.
Regarding `CC1=C(C(=O)Nc2ccccc2)C(c2ccccc2F)C(C(=O)Nc2ccccc2)=C(C)N1`, the T/C reads like this: under setting [5], 100 % of control; under setting [6], 100 % of control; (dose: 400.0 mg/kg/injection, schedule: Q04DX002 (ip), vehicle: saline with Tween-80) 91 % of control.
In the case of `Nc1ncc2[nH]cnc2n1`, the T/C was 102 % of control under setting [13], 100 % of control under setting [14] and 103 % of control under setting [15].
Turning to `OCCN1CCN(Cc2cc(Cl)cc(CN3CCN(CCO)CC3)c2O)CC1`, the T/C reads like this: (dose: 60.0 mg/kg/injection, schedule: Q01DX005 (ip), vehicle: saline with Tween-80) 100 % of control; (dose: 120.0 mg/kg/injection, schedule: Q01DX005 (ip), vehicle: saline with Tween-80) 97 % of control; (dose: 240.0 mg/kg/injection, schedule: Q01DX005 (ip), vehicle: saline with Tween-80) 100 % of control.
Turning to `O=C1C=C(O)CN1C(=O)c1ccc(Cl)cc1`, the T/C reads like this: under setting [3], 98 % of control; under setting [4], 107 % of control; (dose: 200.0 mg/kg/injection, schedule: Q01DX009 (ip), vehicle: Klucel (hydroxypropylcellulose) (HPC)) 107 % of control.
Consider `CC1=C2CCC3(C)C(=C2OC1=O)C(C)=C(Cl)C(Br)C3Br` (stereo not given), for which the T/C is 102 % of control under setting [13], 111 % of control under setting [14] and 118 % of control under setting [15].

The record behind these values is PubChem BioAssay AID330 (DTP/NCI, 2004).
